Data reported in PMC9921063 (Molecules, 2023).
≈ marks a conversion by molar mass, not a printed value.

How the values were obtained:
[1] = DPPH radical scavenging activity; details: antiradical scavenging; mean ± S.D.
Method: (§1) Three methods were used for the assessing antioxidant properties of the selected compounds, which are 2.2-diphenyl-1-picrylhydrazyl (DPPH), 2.2’-azino-bis (3-ethylbenzothiazoline-6-sulphonic acid) (ABTS) radicals scavenging, and β-carotene linoleic acid bleaching assay. […] The control compound was butylated hydroxytoluene (BHT), which is a potent antioxidant.
Briefly, various amounts of produced compounds were diluted with ultrapure water after being dissolved in dimethylsulfoxide (DMSO)/water (1/9; v/v) (1, 0.5, 0.250, 0.125, 0.0625, 0.03125 mg mL^−1). The samples were then combined with […] of a 4% (w/v) solution of the DPPH radical in ethanol. The combination was incubated for 30 min. at room temperature and in the dark. Spectrophotometric analysis was used to calculate the scavenging capacity by comparing the decrease in absorbance at 517 nm to a blank.
(§2) All the assays used for antioxidant determination (DPPH, ABTS, and β-carotene bleaching assay) were performed simultaneously three times in the same conditions. The results obtained in µM mL^−1 average of the three experiments.

[2] = ABTS radical scavenging assay; details: antiradical scavenging; mean ± S.D.
Method: as §1
ABTS radical scavenging activity was conducted by referring to the method of Re et al..
as §2

[3] = β-Carotene linoleic acid bleaching assay; details: β-carotene bleaching test; mean ± S.D.
Method: as §1
β-Carotene bleaching test was conducted following the method described by Pratt’s.
as §2

electric eel AChE = electric eel AChE (Electrophorus electricus, UniProt O42275); assay: biochemical; assay type: biochemical; details: mean ± S.D.
Sequence of electric eel AChE (O42275 24-633): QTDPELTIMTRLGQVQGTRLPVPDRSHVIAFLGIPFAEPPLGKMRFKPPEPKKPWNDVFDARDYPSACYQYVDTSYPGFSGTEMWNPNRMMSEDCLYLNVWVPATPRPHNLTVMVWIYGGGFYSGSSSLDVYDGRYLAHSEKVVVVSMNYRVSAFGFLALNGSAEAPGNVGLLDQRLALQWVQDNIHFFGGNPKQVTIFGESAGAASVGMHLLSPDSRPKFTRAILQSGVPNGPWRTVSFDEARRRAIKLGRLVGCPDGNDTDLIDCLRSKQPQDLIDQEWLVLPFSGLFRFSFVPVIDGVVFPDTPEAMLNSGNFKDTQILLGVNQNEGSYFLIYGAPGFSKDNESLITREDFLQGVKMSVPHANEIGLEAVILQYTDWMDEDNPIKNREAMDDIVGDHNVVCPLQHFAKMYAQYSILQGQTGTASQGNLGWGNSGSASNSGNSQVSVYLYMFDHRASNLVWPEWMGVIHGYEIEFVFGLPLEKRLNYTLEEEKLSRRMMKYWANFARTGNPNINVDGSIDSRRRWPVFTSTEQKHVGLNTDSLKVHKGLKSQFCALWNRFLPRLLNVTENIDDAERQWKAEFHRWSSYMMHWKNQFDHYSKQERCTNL
Method: According to the Ellman et al. published spectrophotometric method of electric eel AChE [47], AChEI activity was measured. Acetylthiocholine iodide (ATCI) was used as the reaction’s substrate, and the antiacetylcholinesterase activity was measured using 5,5’-Dithiobis-(2-nitrobenzoic acid) (DTNB).

TyrE = TyrE (Agaricus bisporus, UniProt C7FF04); assay type: biochemical
Sequence of TyrE (C7FF04 1-392): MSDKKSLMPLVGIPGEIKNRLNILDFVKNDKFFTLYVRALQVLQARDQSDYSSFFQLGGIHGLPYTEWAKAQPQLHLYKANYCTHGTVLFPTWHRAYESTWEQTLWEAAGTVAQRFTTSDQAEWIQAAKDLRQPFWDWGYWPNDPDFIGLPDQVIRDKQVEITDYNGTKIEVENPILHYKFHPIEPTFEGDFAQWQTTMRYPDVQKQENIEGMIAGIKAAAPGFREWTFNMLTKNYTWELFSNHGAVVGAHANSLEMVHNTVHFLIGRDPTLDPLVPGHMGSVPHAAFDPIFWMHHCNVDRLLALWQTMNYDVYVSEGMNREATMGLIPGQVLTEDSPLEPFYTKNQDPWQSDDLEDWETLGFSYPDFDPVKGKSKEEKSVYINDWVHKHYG

[4] = test system: colon carcinoma cells (HCT-116); assay: In vitro anticancer proliferation (cytotoxicity) assay; assay type: cell-based, human; details: for IC50 HCT-116: mean ± S.D.; for IC50: Homo sapiens, HCT-116, mean ± S.D.
Method: (§3) The selected compound was investigated for its cytotoxic properties against HCT-116 and HepG-2 (cancer cell lines of ATCC, Rockville, MD, USA). Vinblastine was applied as reference drug. The assay was conducted according to the methods described by Mossman and our recently published data.

[5] = test system: hepatocellular carcinoma cell lines (HepG-2); assay: as above; assay type: cell-based, human; details: hepatocellular carcinoma cells, mean ± S.D.; for IC50: Homo sapiens, HepG2
Method: as §3

Vero cell = assay: In vitro cytotoxicity assay, MTT; assay type: cell-based; details: mean ± S.D.
Method: (§4) MTT colorimetric technique was carried out for cytotoxicity evaluation according to the methods mentioned in our previously published article. An amount of 96 well plates with complete were used for the culture of the cells. FLUOstar OPTIMA spectrophotometer was applied for colorimetric analysis and in vitro evaluation.

L. major amastigotes = assay: Antileishmanial assay, amastigotes; assay type: cell-based, Leishmania major; details: mean ± S.D.
Method: (§5) This assay was carried out according to the methods mentioned in our previously published article. L. major promastigotes were isolated locally from an indoor patient in 2016, liquid nitrogen was used for the preservation of the parasites, and BALB/c mice were used for the maintenance of the parasites and production of L. major amastigotes. Phenol red-free RPMI 1640 medium (Invitrogen, USA) with 10% FBS was used for the culture and in vitro evaluation, while amphotericin B (AmB) was used as reference drug.

L. major promastigotes = assay: Antileishmanial assay, promastigotes; assay type: cell-based, Leishmania major; details: mean ± S.D.
Method: as §5

[6] = test system: T. gondii tachyzoites RH strain; assay: Antitoxoplasmal assay; assay type: cell-based, Toxoplasma gondii; details: mean ± S.D.
Method: This assay was carried out according to the methods mentioned in our previously published article. Vero cells line (ATCC® CCL81™, USA) were used for the serial passage and cultivation of T. gondii tachyzoites RH strain, complete RPMI 1640 medium with heat-inactivated 10% FBS was used for the culture and in vitro evaluation, while atovaquone (ATO) was used as reference drug. The results were expressed in IC50 of three independent readings, followed by the selectivity index (SI) calculation by dividing CC50 over IC50 of the same compound [56].

L. monocytogenes = assay: Minimum inhibitory concentration (MIC); assay type: cell-based, Listeria monocytogenes
Method: (§6) Microorganisms, media and growth conditions, agar well diffusion method for inhibition zone determination (IZ) and minimum inhibitory concentration (MIC) were performed according to the literature work.
(§7) The synthesized compounds were examined in vitro for their antimicrobial activity against Six standard microorganisms of ATCC, two Gram positive bacteria S. aureus and Listeria monocytogenes, three Gram negative bacteria Esherichia coli, Pseudomonas aeruginosa and Salmonella typhimurium and the fungus C. albicans. Bacteria were cultured in Luria-Bertani (LB) medium, while Sabouraud agar was used for culturing C. albicans and the assay conducted according to our previous techniques. The results were the average of 3 readings.

C. albicans = assay: Minimum inhibitory concentration (MIC); assay type: cell-based
Method: as §6, §7

S. aureus = assay: Minimum inhibitory concentration (MIC); assay type: cell-based
Method: as §6, §7

S. typhimurium = assay: Minimum inhibitory concentration (MIC); assay type: cell-based, Salmonella typhimurium
Method: as §6, §7

[7] = test system: all examined microorganisms; assay: Antimicrobial activity, summary over all examined microorganisms; assay type: cell-based; details: all of the examined indicator organisms
Method: as §6, §7

[8] = In vitro cytotoxicity assay, MTT; assay type: cell-based; details: African green monkey, Vero cells, mean ± S.D., read-out: CC50 Toxicity (Vero Cell)
Method: as §4

Compound	DPPH IC50 [1]	ABTS IC50 [2]	β-Carotene IC50 [3]	TyrEI IC50 (TyrE)	IC50 HCT-116 [4]	IC50 HepG-2 [5]	CC50 Toxicity (Vero Cell) (Vero cell)	Amastigote IC50 (L. major amastigotes)	Promastigotes IC50 (L. major promastigotes)	Toxoplasma IC50 [6]	IC50 [4]	IC50 [5]	further results
Cc1cc(C(C)(C)C)c(O)c(C(C)(C)C)c1 [BHT, butylated hydroxytoluene, reference compound]	31.55 ± 4.8 µM mL^−1	17.41 ± 2.9 µM mL^−1	89.55 ± 13.3 µM mL^−1										
5,6-dimethyl-1,3-(3,5)-dimethyl-4-methylbenzyl)-2,3-dihydro-1H-benzo[d]imidazolium bromide [Compound 2d]	74.25 ± 11.6 µM mL^−1	55.21 ± 7.4 µM mL^−1	360.90 ± 40.8 µM mL^−1	43.25 ± 6.8 µM mL^−1	16.04 ± 2.9 µM mL^−1	26.82 ± 3.6 µM mL^−1	1.7 ± 0.3 µM mL^−1	1.4 ± 0.2 µM mL^−1	1.9 ± 0.3 µM mL^−1	3.8 ± 0.5 µM mL^−1			AChEI IC50 (electric eel AChE): 22.27 ± 3.1 µM mL^−1
5,6-Dimethyl-[1,3-(2,3,4,5,6-pentamethyl-2,4,6-trimethyl)-benzimidazol-2-ylidene](p-cymene) ruthenium(II) chloride [Compound 3b]	43.05 ± 5.7 µM mL^−1	32.05 ± 4.2 µM mL^−1	225.45 ± 31.5 µM mL^−1	19.88 ± 2.4 µM mL^−1	19.45 ± 3.2 µM mL^−1	31.40 ± 4.8 µM mL^−1	1.3 ± 0.3 µM mL^−1	1.1 ± 0.2 µM mL^−1	0.74 ± 0.08 µM mL^−1	1.4 ± 0.2 µM mL^−1			MIC (L. monocytogenes): 15.6 µM mL^−1; MIC (C. albicans): 1.25 µM mL^−1; MIC (S. aureus): 3.9 µM mL^−1; MIC (S. typhimurium): 3.9 µM mL^−1; Inhibition of the examined indicator organisms [7]: inhibited
CC[C@]1(O)C[C@@H]2CN(CCc3c([nH]c4ccccc34)[C@@](C(=O)OC)(c3cc4c(cc3OC)N(C)[C@H]3[C@@](O)(C(=O)OC)[C@H](OC(C)=O)[C@]5(CC)C=CCN6CC[C@]43[C@@H]65)C2)C1 [vinblastine, reference compound]											3.83 µg/mL (≈ 4.72 µM)	6.05 µg/mL (≈ 7.46 µM)	
Cc1cc(C)c(Cn2c[n+](Cc3c(C)cc(C)cc3C)c3cc(C)c(C)cc32)c(C)c1.[Br-] [Compound 2b, 5,6-dimethyl-1,3-bis(2,4,6-trimethylbenzyl)-1H-benzo[d]imidazol-3-ium bromide]	63.45 ± 10.1 µM mL^−1	38.14 ± 4.9 µM mL^−1	325.55 ± 48.7 µM mL^−1								13.6 ± 2 µg/mL	17.4 ± 2.7 µg/mL	IC50 (electric eel AChE; read-out: AChEI IC50 (converted)): 27.3 µM; CC50 [8]: 1.1 ± 0.1 µg/mL; IC50 (L. major amastigotes; Leishmania major, read-out: Amastigote IC50): 0.3 ± 0.04 µg/mL; IC50 (L. major promastigotes; Leishmania major): 2.2 ± 0.3 µg/mL; IC50 ([6]; Toxoplasma gondii): 3.7 ± 0.5 µg/mL
